Here are results for 1 compound from ChEMBL document CHEMBL5120859, “Optimization of 4-arylthiophene-3-carboxylic acid derivatives as inhibitors of ANO1: Lead optimization studies toward their analgesic efficacy for inflammatory pain” (Eur J Med Chem, 2022).

Series [1] in a line: Plasma concentration in C57BL/6 mouse at 40 mg/kg,IG measured after 0.25 hrs by HPLC analysis. The format is ADME, organism-based. The settings on record: po.
The target of series [2] is Voltage-gated potassium channel, KQT; KCNQ2(Kv7.2)/KCNQ3(Kv7.3) (Homo sapiens) (UniProt O43526+O43525). Put plainly: Inhibition of KCNQ2/3 (unknown origin) at a holding potential -40 mV at 30 uM by whole cell patch clamp electrophysiology relative to control.

The compound `O=C(Nc1scc(-c2ccc(Cl)cc2)c1C(=O)O)c1cc(F)ccc1F` registered a concentration at 0.25 h in series [1] of 97.7 µg/mL. In series [2], this compound had an inhibition of 21.4%.
